Values of other authors, collected in paper PMC2151269, “Broad phase II and pharmacokinetic study of methoxy-morpholino doxorubicin (FCE 23762-MMRDX) in non-small-cell lung cancer, renal cancer and other solid tumour patients” (British Journal of Cancer, 1998).

Parameters: method as in Tidefelt et al, 1989
Conditions: 0-48 h after simultaneous infusion of 20 mg of epirubicin and 20 mg of doxorubicin; ref Tidefelt et al, 1989; cited from earlier work

SMILES	Peak cellular concentrations relative to plasma concentrations
COc1cccc2c1C(=O)c1c(O)c3c(c(O)c1C2=O)C[C@@](O)(C(=O)CO)C[C@@H]3O[C@H]1C[C@H](N)[C@H](O)[C@H](C)O1 [doxorubicin]	around 200 times
COc1cccc2c1C(=O)c1c(O)c3c(c(O)c1C2=O)C[C@@](O)(C(=O)CO)C[C@@H]3O[C@H]1C[C@H](N)[C@@H](O)[C@H](C)O1 [epirubicin]	around 200 times
